Assay results: US5340818A, “Methods and compositions for inhibiting tumor cell growth” (priority 1993, dated 1994)
pIC50: −log10 of the molar value. Values joined by “and” are separate entries in the source; they are usually repeats but may differ in a detail not shown here. Identical values can stand only once. Like-named read-outs stand apart in the source and are kept apart here.

Tests used:
[1] = test system: tumors; conditions: literature; cited from earlier work
[2] = test system: HL-60 cells; experiment: HL-60 cell growth inhibition, 72 h; type: cell-based, human; conditions: HL-60, 72 h; for IC50: Homo sapiens; for IC50 / pIC50: read-out: Cell Growth Inhibition, IC50
Description: For growth inhibition studies, HL-60 cells (1.5×10^5 /ml) were grown in RPMI 1640 media (GIBCO, Grand Island, N.Y.) at 37° C. in humidified 5% CO2 for 72 h. Viable cells were determined using trypan blue exclusion and counted in a hemocytometer. The fractional inhibition for each compound concentration (0.0025-0.05 mg/ml in 0.1% dimethylsulfoxide) was analyzed with the median-effect plot using a computer program (Chou, T. -C and P. Talalay, Adv. Enzyme Regul., 22:27-55 (1984); Chou, J. and T. -C. thou, Dose-Effect analysis with microcomputers: Quantitation of ED50, LD50, synergism, antagonism, low-dose risk, receptor ligand binding and enzyme kinetics. A computer software disk for Apple II series or IBM-PC and manual. Elsevier Science Publishers, Elsevier-BioSoft, Cambridge, United Kingdom (1986)). The median-effect concentration (IC50) was determined automatically for three to five dose-effect levels. Cell growth in the absence of plant compound and in the presence of dimethylsulfoxide was used as a control. Dimethylsulfoxide alone inhibited cell growth 3.9%±1.5% during the 72 h incubation period. Those data with negative values represent activations.

[3] = test system: DNA synthesis in HL-60 cells; experiment: Inhibition of [3H-methyl]dThd incorporation into DNA of HL-60 cells; type: cell-based, human; conditions: for inhibition at 30 µg/mL: Homo sapiens, HL-60, at 0.03 mg/mL, read-out: % Inhibition of Precursor Incorporation, DNA; for inhibition of DNA synthesis, in words: HL-60, 0.03 mg/ml; for % Inhibition of Precursor Incorporation, DNA: at 0.03 mg/mL
Description: (§1) For the precursor incorporation studies, each compound (in 0.3% dimethylsulfoxide) was preincubated with HL-60 cells (a human promyelocytic leukemic cell line) 2.2×10^6 /ml, for 15 min prior to the addition of the labeled precursor (obtained from ICN Radiochemicals, Irvine, Calif.) and then incubated for 30 min. The precursors used for incorporation into DNA, RNA and protein were [^3 H-methyl]dThd (1 μCi, 0.15 nmole/ml), [5-^3 H]Cyd (5 μCi, 0.23 nmol/ml), and [2,3,4,5-^3 H]L-Leu (0.5 μCi, 0.004 nmol/ml), respectively. Incorporation of radioactivity in the absence of a plant compound and in the presence of dimethylsulfoxide was used as a control.
Human promyelocytic cells (HL-60) were incubated with [^3 H-methyl]dTHDin the presence and absence of a plant alkaloid.

[4] = test system: RNA synthesis in HL-60 cells; experiment: Inhibition of [5-3H]Cyd incorporation into RNA of HL-60 cells; type: cell-based, human; conditions: for inhibition at 30 µg/mL: Homo sapiens, HL-60, 0.5 h
Description: as §1, with “control. The control values for incorporation into DNA, RNA and protein were 8,500, 5,600 and 1,700 cpm/10^6 cells, respectively. The incubation conditions and the procedures for isolating DNA, RNA and protein fractions have been previously described (Chou, T. -C., et al., Cancer Res., 43:3074-3079 (1983)) .” for “control.”
(§2) HL-60 cells were incubated with [5-^3 H]Cyd or [2,3,4,5-^3 H]L-Leu in the presence and absence of alkaloids (0.03 mg/ml) in order to find the effects of the alkaloid on the incorporation of labeled precursors into RNA or protein. […] Over 90% of RNA and protein biosynthesis were inhibited by compounds 11, 16, 17, 22, 28, 29and 30 (Table 1). […] In most cases, the amount required to inhibit precursor incorporation into DNA was less than that to inhibit precursor incorporation into RNA or protein (i.e. DNA synthesis is inhibited most potently).

[5] = test system: protein synthesis in HL-60 cells; experiment: Inhibition of [2,3,4,5-3H]L-Leu incorporation into protein of HL-60 cells; type: cell-based, human; conditions: for inhibition at 30 µg/mL: Homo sapiens; for % Inhibition of Precursor Incorporation, Protein: at 0.03 mg/mL
Description: as §1, with “control. The control values for incorporation into DNA, RNA and protein were 8,500, 5,600 and 1,700 cpm/10^6 cells, respectively. The incubation conditions and the procedures for isolating DNA, RNA and protein fractions have been previously described (Chou, T. -C., et al., Cancer Res., 43:3074-3079 (1983)) .” for “control.”
as §2

[6] = test system: L1210 leukemia; experiment: L1210 leukemia survival time evaluation in BDF1 mice; conditions: for Day 6 AWC / MST / N/T (nine day survivors/total mice) / Survival Time, individual mice / % ILS (increase in lifespan): day 1, QDX4 ip; for % ILS (increase in lifespan): 25% or greater indicates activity; for antileukemic activity, in words: L1210, BDF mice, low doses, ip
[7] = at 0.03 mg/mL, read-out: % Inhibition of Precursor Incorporation, RNA
[8] = HL-60, at 0.03 mg/mL, read-out: % Inhibition of Precursor Incorporation, Protein

CN(C)CCOc1cc2c(c3c1c(=O)c1ccccc1n3C)C=CC(C)(C)O2 [Compound 2, O-(dimethylaminoethyl)noracronycine]
antitumor activity, in words [1]: significant antitumor activity

COc1cc(O)c2c(=O)c3cccc(OC)c3n(C)c2c1OC [Compound 17, 5-O-Methyl-citrusinine-I]
cell growth inhibition, in words [2]: significant activity against leukemic cells in vitro | IC50 [2]: 2.7 µg/mL and 8.6 µM | inhibition at 30 µg/mL [3]: 93.4% | inhibition at 30 µg/mL [4, 7]: 96.4% | inhibition at 30 µg/mL [5, 8]: 93% | Day 6 AWC ([6]; 6.25 mg/kg): +1.8 g | MST ([6]; 6.25 mg/kg): 7.0 | N/T (nine day survivors/total mice) ([6]; 6.25 mg/kg): 0/2 | Survival Time, individual mice ([6]; 6.25 mg/kg): 7 | % ILS (increase in lifespan) ([6]; 6.25 mg/kg): 0% | Day 6 AWC ([6]; 12.5 mg/kg): +1.5 g | MST ([6]; 12.5 mg/kg): 7.0 | N/T (nine day survivors/total mice) ([6]; 12.5 mg/kg): 0/2 | Survival Time, individual mice ([6]; 12.5 mg/kg): 7 | % ILS (increase in lifespan) ([6]; 12.5 mg/kg): 0% | antileukemic activity, in words [6]: not active

CC1(C)C=Cc2c(cc(O)c3c(=O)c4cccc(O)c4[nH]c23)O1 [Compound 34, Atalaphyllidine]
cell growth inhibition, in words [2]: comparable activity | IC50 [2]: 1.3 µg/mL and 4.2 µM | inhibition at 30 µg/mL [3]: 78.9% | inhibition at 30 µg/mL ([4]; read-out: % Inhibition of Precursor Incorporation, RNA, at 0.03 mg/mL): 94.8% | inhibition at 30 µg/mL ([5]; HL-60, read-out: % Inhibition of Precursor Incorporation, Protein, at 0.03 mg/mL): 82.9% | Day 6 AWC ([6]; 6.25 mg/kg): +1.7 g | MST ([6]; 6.25 mg/kg): 7.0 | N/T (nine day survivors/total mice) ([6]; 6.25 mg/kg): 0/2 | Survival Time, individual mice ([6]; 6.25 mg/kg): 7 | % ILS (increase in lifespan) ([6]; 6.25 mg/kg): 0% | Day 6 AWC ([6]; 25 mg/kg): +1.5 g | MST ([6]; 25 mg/kg): 7.5 | N/T (nine day survivors/total mice) ([6]; 25 mg/kg): 0/2 | % ILS (increase in lifespan) ([6]; 25 mg/kg): 7% | Survival Time, individual mice ([6]; 25 mg/kg, listed as SK 32090): 7 and 8 | antileukemic activity, in words [6]: evidence of antileukemic activity

CC(C)=CCc1c2c(c3[nH]c4ccccc4c(=O)c3c1O)C=CC(C)(C)O2 [Compound 36, Severifoline]
IC50 [2]: > 40 µg/mL and > 111 µM | inhibition at 30 µg/mL [3]: 20% | antitumor activity, in words [1]: no antitumor activity

Cn1c2c(O)cccc2c(=O)c2c(O)cc3c(c21)C=CC(C)(C)O3 [Compound 37, 11-Hydroxy-noracronycine]
cell growth inhibition, in words [2]: comparable activity | IC50 [2]: 2.3 µg/mL and 7.1 µM | inhibition at 30 µg/mL [3]: 98.6% | inhibition at 30 µg/mL [4, 7]: 96.6% | inhibition at 30 µg/mL [5, 8]: 95.3% | Day 6 AWC ([6]; 6.25 mg/kg): +2.0 g | MST ([6]; 6.25 mg/kg): 7.0 | N/T (nine day survivors/total mice) ([6]; 6.25 mg/kg): 0/2 | Survival Time, individual mice ([6]; 6.25 mg/kg): 7 | % ILS (increase in lifespan) ([6]; 6.25 mg/kg): 0% | Day 6 AWC ([6]; 25 mg/kg): +1.8 g | MST ([6]; 25 mg/kg): 7.0 | N/T (nine day survivors/total mice) ([6]; 25 mg/kg): 0/2 | Survival Time, individual mice ([6]; 25 mg/kg): 7 | % ILS (increase in lifespan) ([6]; 25 mg/kg): 0% | antileukemic activity, in words [6]: not active

CC(=O)Oc1cccc2c(=O)c3c(O)c(CC=C(C)C)c4c(c3n(C)c12)C=CC(C)(C)O4 [Compound 47, 11-O-Acetyl-N-methyl severifoline]
IC50 [2]: 8.8 µg/mL and 20.3 µM | inhibition at 30 µg/mL [3]: 58.4% | inhibition at 30 µg/mL [4, 7]: 16.2% | inhibition at 30 µg/mL [5, 8]: 36.2%

COc1c2c(c(O)c3c(=O)c4cccc(O)c4n(C)c13)C=CC(C)(C)O2 [Compound 48, Pyranofoline]
cell growth inhibition, in words [2]: better activity than that of acronycine | IC50 [2]: 3.1 µg/mL and 8.8 µM | inhibition of DNA synthesis, in words [3]: inhibited DNA synthesis significantly | inhibition at 30 µg/mL [3]: 98.8% | inhibition at 30 µg/mL [4, 7]: 97.2% | inhibition at 30 µg/mL [5, 8]: 96.4%

C=C(C)C1CCC2(C)CC1c1c(cc3c(c1O)c(=O)c1cccc(O)c1n3C)O2 (stereo not drawn) [Compound 50, Cycloglyco-foline]
cell growth inhibition, in words [2]: better activity than that of acronycine | IC50 [2]: 5.8 µg/mL and 14.8 µM | inhibition of DNA synthesis, in words [3]: inhibited DNA synthesis significantly | inhibition at 30 µg/mL [3]: 98.7% | inhibition of RNA biosynthesis, in words ([4]; HL-60, 0.03 mg/ml): The same results were obtained | inhibition at 30 µg/mL [4, 7]: 55.7% | inhibition of protein biosynthesis, in words ([5]; HL-60, 0.03 mg/ml): The same results were obtained | inhibition at 30 µg/mL [5, 8]: 92.1% | Day 6 AWC ([6]; 12.5 mg/kg): +1.8 g | MST ([6]; 12.5 mg/kg): 8.5 | N/T (nine day survivors/total mice) ([6]; 12.5 mg/kg): 0/2 | % ILS (increase in lifespan) ([6]; 12.5 mg/kg): 21% | Survival Time, individual mice ([6]; 12.5 mg/kg, listed as Sk 32091): 8 and 9

CC(C)=CCc1c(O)c(C2CC(C)(C)Oc3cc(O)c4c(=O)c5ccccc5[nH]c4c32)c(O)c2c(=O)c3ccccc3n(C)c12 (stereo not drawn) [Compound 52, Glycobismine-A]
Cell Growth Inhibition, IC50 [2]: > 40 µg/mL | pIC50 [2]: < 4.18 | inhibition of DNA synthesis, in words [3]: not active | % Inhibition of Precursor Incorporation, DNA [3]: -27.8% | % Inhibition of Precursor Incorporation, RNA ([4]; at 0.03 mg/mL): -57.4% | % Inhibition of Precursor Incorporation, Protein [5]: -13.2%

Furofoline-II [Compound 51]
Cell Growth Inhibition, IC50 [2]: > 40 µg/mL | pIC50 [2]: < 3.91 | inhibition of DNA synthesis, in words [3]: not active | % Inhibition of Precursor Incorporation, DNA [3]: 13.1% | % Inhibition of Precursor Incorporation, RNA ([4]; at 0.03 mg/mL): -46.3% | % Inhibition of Precursor Incorporation, Protein [5]: 19.5%

Methoxymethyl-pyranofoline [Compound 49]
Cell Growth Inhibition, IC50 [2]: 18.7 µg/mL | pIC50 [2]: 4.33 | inhibition of DNA synthesis, in words [3]: inhibited DNA synthesis significantly | % Inhibition of Precursor Incorporation, DNA [3]: 85.3% | % Inhibition of Precursor Incorporation, RNA ([4]; at 0.03 mg/mL): 70.1% | % Inhibition of Precursor Incorporation, Protein [5]: 87.3%
